Test results taken from patent US8030071B2, “Restoration of cholesterol independence and its use as a selectable marker in NS0 cell culture” (priority 2005, dated 2011).

Legend:
NS0 cells [1] = experiment: 5-azacytidine treatment and limiting dilution plating for cholesterol independent clones; format: cell-based, mouse
Description: Treatment with 5-azacytidine (5azaC) and isolation of cholesterol independent clones. NS0 cells at 200,000 cells/ml were treated with 5azaC (1 μM and 5 μM) in tissue culture flasks. After 48 hrs, the cells were washed and limiting dilution plating was carried out in 10 96-well plates at a dilution of 2,000 cells/well using CD Hybridoma medium without cholesterol supplement. Untreated NS0 cells were also plated in cholesterol-free medium as a control for background cholesterol independent variants in the cell population. The plates were incubated at 5% CO2, 37° C. and saturated humidity for 1-2 weeks.
5azaC treated cells were aliquoted into 96-well cell culture plates containing cholesterol-free medium. […] Single cell colonies were isolated from the 96-well culture plates and expanded to tissue culture flasks for further characterization.

Hsd17b7 = Hsd17b7 transcription after 5-azacytidine treatment (real-time PCR); format: cell-based, mouse; conditions: NS0 cells treated with 5-azacytidine
Description: Reverse Transcription and Real-time comparative quantitative PCR. Total RNA was extracted from cells in exponential growth phase using the RNeasy Mini Kit (Qiagen, Valencia, Calif., USA), followed by reverse transcription with Superscript™ II RNase H^− Reverse Transcriptase (Invitrogen). For real-time comparative PCR analysis, samples were prepared using QuantiTect SYBR Green PCR kit (Qiagen) and reactions run on ABI 7700 (Applied Biosystems, Foster City, Calif., USA). Samples were analyzed in duplicates and β-actin was used as the normalization message. The fold change was calculated using the comparative CT method.

other systems = conditions: baseline spontaneous reactivation frequency of 10^−5 or less (Holliday et al.); cited from earlier work
NS0 cells [2] = experiment: Growth kinetics of NS0 cells in tissue culture flasks with sterol supplement; format: cell-based, mouse; conditions: 5.0 μg/ml sterol, 4 mg/ml fatty acid-free BSA; for maximum cell density: after 70 hrs in culture; for growth of NS0 cells supported: tissue culture flasks
Description: The medium in all four flasks was supplemented with 4 mg/ml fatty acid-free BSA.
Cells and cell culture. NS0 and NS0_r, the cholesterol independent revertant, were obtained from Pfizer, Inc. (St. Louis, Mo.) and have been described previously (Seth et al., Biotechnol Bioeng, 90:552-67, 2005). Growth response of NS0 cells to various cholesterol biosynthesis pathway precursors and intermediates was studied in CD Hybridoma medium (Invitrogen, Carlsbad, Calif., USA) without cholesterol-lipid concentrate. […] Each well containing 1.5 ml precursor-supplemented medium was seeded with 2×10^5 cells/ml. NS0 cells cultured in the presence of cholesterol served as the positive control. Different intermediates were dissolved in 100% ethanol and added to the culture medium along with 4 mg/ml fatty acid-free BSA (Sigma, St. Louis, Mo., USA). […] Citric acid anhydrous, mevalonolactone, squalene, lanosterol, lathosterol, 7-dehydrocholesterol and cholesterol powder were purchased from Sigma (St. Louis, Mo., USA). All test conditions were performed in duplicate. The medium was supplemented with 4 mg/ml fatty acid-free BSA. Presence of BSA facilitates uptake of the sterol precursors (Sato et al., Mol Biol Med, 2, 121-34:1984).
In order to verify the block between lanosterol and lathosterol in the cholesterol biosynthetic pathway, growth kinetics of NS0 cells in the presence of lanosterol (5.0 μg/ml), lathosterol (5.0 μg/ml) and cholesterol (5.0 μg/ml) were determined. Cells were also grown in basal medium supplemented with fatty acid-free BSA only (FIG. 2b). […] Cells attained a maximum cell density of 4×10^6 cells/ml after 70 hrs in culture with lathosterol, compared to 3×10^6 cells/ml in medium supplemented with cholesterol. These observations were consistent over repeated cultures. The results support the notion that the block between lanosterol and lathosterol in the biosynthesis of cholesterol in NS0 is at least partly responsible for cholesterol auxotrophy in this cell line.

NS0 cells [3] = experiment: Growth response of NS0 cells in 24-well plates to cholesterol biosynthesis precursors/intermediates; format: cell-based, mouse; conditions: cholesterol-free CD Hybridoma medium, 4 mg/ml fatty acid-free BSA, three concentrations per precursor
Description: Cells and cell culture. […] Growth response of NS0 cells to various cholesterol biosynthesis pathway precursors and intermediates was studied in CD Hybridoma medium (Invitrogen, Carlsbad, Calif., USA) without cholesterol-lipid concentrate. […] Each well containing 1.5 ml precursor-supplemented medium was seeded with 2×10^5 cells/ml. NS0 cells cultured in the presence of cholesterol served as the positive control. Different intermediates were dissolved in 100% ethanol and added to the culture medium along with 4 mg/ml fatty acid-free BSA (Sigma, St. Louis, Mo., USA). […] All test conditions were performed in duplicate. The medium was supplemented with 4 mg/ml fatty acid-free BSA.

Row | SMILES | maximum cell density (NS0 cells [2]) | growth of NS0 cells supported by precursor/intermediate (NS0 cells [3]) | growth of NS0 cells supported (NS0 cells [2]) | further results
1 | Nc1ncn([C@@H]2O[C@H](CO)[C@@H](O)[C@H]2O)c(=O)n1 [5azaC, 5-azacytidine] | – | – | – | reversion rate to cholesterol independence (NS0 cells [1]; 1 μM 5azaC): less than 1×10^−6; Survival frequency of wells in a 96-well plate culture (NS0 cells [1]; 5 μM 5azaC, 2,000 cells/well, cholesterol-free medium): ~80 % of wells; cholesterol revertants after exposure (NS0 cells [1]; 5 μM 5azaC, 48 hrs, then cholesterol-free medium): many cholesterol revertants; transcriptional repression of Hsd17b7 (Hsd17b7): relieved; reactivated cells (other systems): 10-30%
2 | CC(C)CCC[C@@H](C)[C@H]1CC[C@H]2[C@@H]3CC=C4C[C@@H](O)CC[C@]4(C)[C@H]3CC[C@]12C [cholesterol] | 3×10^6 cells/ml | – | – | –
3 | CC(C)=CCC[C@@H](C)[C@H]1CC[C@@]2(C)C3=C(CC[C@]12C)[C@@]1(C)CC[C@H](O)C(C)(C)[C@@H]1CC3 [lanosterol] | – | Growth was not supported | unable to support the growth of NS0 cells | –
4 | CC(C)CCC[C@@H](C)[C@H]1CC[C@H]2C3=CC[C@H]4C[C@@H](O)CC[C@]4(C)[C@H]3CC[C@]12C [lathosterol] | 4×10^6 cells/ml | able to support the growth of cells | effective in promoting the growth of NS0 cells | –
5 | C[C@@]1(O)CCOC(=O)C1 [mevalonolactone] | – | Growth was not supported | – | –
6 | CC(C)=CCC/C(C)=C/CC/C(C)=C/CC/C=C(\C)CC/C=C(\C)CCC=C(C)C [squalene] | – | Growth was not supported | – | –
